Here are results for seven compounds from publication PMC9108036 (Biomedicine & Pharmacotherapy, 2022).

pIC50: −log10 of the molar value.

In the experiment the test system is lentiviral pseudovirus with SARS-CoV-2 spike D614G. Format: cell-based.

The pIC50 is the negative decadic logarithm of the IC50, by convention in mol/L. Low values mean a high IC50, high ones a low IC50. Regarding `O=c1[nH]cc(F)c(=O)[nH]1` [Fluorouracil], the pIC50 is 5.15. Same read-out and setting: the value for `CC(=O)O[C@@]12CO[C@@H]1C[C@H](O)[C@@]1(C)C(=O)[C@H](O)C3=C(C)[C@@H](OC(=O)[C@H](O)[C@@H](NC(=O)OC(C)(C)C)c4ccccc4)C[C@@](O)([C@@H](OC(=O)c4ccccc4)[C@H]21)C3(C)C` [Docetaxel] was more than 7.10; that for `CCCCC[C@H](O)/C=C/[C@H]1[C@H](O)CC(=O)[C@@H]1CCCCCCC(=O)O` [Alprostadil] was 5.13. The same measure, in the same setting: in the case of `Nc1nc(Cl)nc2c1ncn2[C@H]1C[C@H](O)[C@@H](CO)O1` [Cladribine] it was 5.11; in that of `CN(C)CCCN1c2ccccc2Sc2ccc(Cl)cc21` [Chlorpromazine], 5.02. Regarding `N=C(N)c1ccc2cc(OC(=O)c3ccc(N=C(N)N)cc3)ccc2c1` [Nafamostat], the “maximum response (inhibition)” value is listed as 50%. Take `CN(C)C(=O)COC(=O)Cc1ccc(OC(=O)c2ccc(NC(=N)N)cc2)cc1` [Camostat]: the “inhibition of virus entry (in words)” value was “failed to inhibit virus entry sufficiently” and the “maximum response (inhibition)” value was found to be 50%.
